{"source": "patent US11401286B2", "about": "(Tetra Discovery Partners, LLC, priority 2012, dated 2022)"}
{"target": "PDE4D7 (Homo sapiens (Human), UniProt Q08499)", "sequence (Q08499 other isoform, or with tags, fused parts or gaps)": "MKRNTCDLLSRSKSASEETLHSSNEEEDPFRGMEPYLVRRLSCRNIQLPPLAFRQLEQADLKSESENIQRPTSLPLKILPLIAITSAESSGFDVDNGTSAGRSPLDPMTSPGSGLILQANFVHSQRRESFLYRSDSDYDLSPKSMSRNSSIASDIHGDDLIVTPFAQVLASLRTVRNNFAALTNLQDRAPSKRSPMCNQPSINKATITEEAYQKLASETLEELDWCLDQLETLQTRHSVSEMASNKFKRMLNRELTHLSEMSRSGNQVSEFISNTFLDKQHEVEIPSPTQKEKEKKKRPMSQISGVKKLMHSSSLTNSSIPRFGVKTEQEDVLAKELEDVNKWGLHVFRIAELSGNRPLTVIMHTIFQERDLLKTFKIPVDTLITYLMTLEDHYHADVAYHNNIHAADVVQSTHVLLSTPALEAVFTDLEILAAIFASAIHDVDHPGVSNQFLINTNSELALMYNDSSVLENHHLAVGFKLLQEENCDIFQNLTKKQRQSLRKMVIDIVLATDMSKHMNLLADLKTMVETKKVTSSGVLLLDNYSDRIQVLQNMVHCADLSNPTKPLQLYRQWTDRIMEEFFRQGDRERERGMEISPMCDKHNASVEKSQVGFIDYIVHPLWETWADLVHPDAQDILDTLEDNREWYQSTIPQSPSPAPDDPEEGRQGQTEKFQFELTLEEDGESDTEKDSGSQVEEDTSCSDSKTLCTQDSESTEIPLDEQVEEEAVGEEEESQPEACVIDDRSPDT", "settings": "not given", "units": {"IC50": "µM"}}
{"smiles": "CCCNC(=O)Cc1ccc(Cc2cc(CC)nc(-c3cccc(Cl)c3)n2)cc1", "note": "[Example 193, 2-(4-((2-(3-Chlorophenyl)-6-ethylpyrimidin-4-yl)methyl)phenyl)-N-propylacetamide]", "IC50": "> 1"}
{"smiles": "COC(=O)Cc1ccc(Cc2cc(C3CC3)nc(-c3cccc(Cl)c3)n2)cc1", "note": "[Example 208, Methyl 2-(4-((2-(3-chlorophenyl)-6-cyclopropylpyrimidin-4-yl)methyl)phenyl)acetate]", "IC50": "> 1"}
{"target": "PDE4D7 (Homo sapiens (Human), UniProt Q08499)", "settings": "read-out: PDE4D7 IC50", "units": {"IC50": "µM"}}
{"smiles": "CCc1cc(Oc2ccc(CC(N)=O)cc2)nc(-c2cccc(Cl)c2)n1", "note": "[Example 181, 2-(4-((2-(3-Chlorophenyl)-6-ethylpyrimidin-4-yl)oxy)phenyl)acetamide]", "IC50": "> 1"}
{"smiles": "CCc1cc(Oc2ccc(CCO)cc2)nc(-c2cccc(Cl)c2)n1", "note": "[Example 182, 2-(4-((2-(3-Chlorophenyl)-6-ethylpyrimidin-4-yl)oxy)phenyl)ethanol]", "IC50": "< 1"}
{"smiles": "CCc1cc(Nc2ccc(CCO)cc2)nc(-c2cccc(Cl)c2)n1", "note": "[Example 191, 2-(4-((2-(3-chlorophenyl)-6-ethylpyrimidin-4-yl)amino)phenyl)ethanol]", "IC50": "< 1"}
{"target": "PDE4D7 (Homo sapiens (Human), UniProt Q08499)", "settings": "read-out: PDE4D7 IC50; PDE4D7 without asterisk", "units": {"IC50": "µM"}}
{"smiles": "Clc1cccc(-c2nc3c(c(Nc4ccc(Cc5ncco5)cc4)n2)CCC3)c1", "note": "[Example 179, 2-(3-Chlorophenyl)-N-(4-(oxazol-2-ylmethyl)phenyl)-6,7-dihydro-5H-cyclopenta[d]pyrimidin-4-amine]", "IC50": "> 1"}
{"smiles": "NS(=O)(=O)Cc1ccc(Nc2nc(-c3cccc(Cl)c3)nc3c2CCC3)cc1", "note": "[Example 180, (4-((2-(3-Chlorophenyl)-6,7-dihydro-5H-cyclopenta[d]pyrimidin-4-yl)amino)phenyl)methanesulfonamide]", "IC50": "> 1"}
{"smiles": "CCc1cc(Oc2ccc(CC(N)=O)cn2)nc(-c2cccc(Cl)c2)n1", "note": "[Example 183, 2-(6-((2-(3-Chlorophenyl)-6-ethylpyrimidin-4-yl)oxy)pyridin-3-yl)acetamide]", "IC50": "> 1"}
{"smiles": "CCc1cc(Nc2ccc(C(C)(C)CO)cc2)nc(-c2cccc(Cl)c2)n1", "note": "[Example 184, 2-(4-((2-(3-Chlorophenyl)-6-ethylpyrimidin-4-yl)amino)phenyl)-2-methylpropan-1-ol]", "IC50": "> 1"}
{"smiles": "CCOC(=O)Cc1ccc(Nc2cc(CC)nc(-c3cccc(Cl)c3)n2)cc1", "note": "[Example 185, Ethyl 2-(4-((2-(3-chlorophenyl)-6-ethylpyrimidin-4-yl)amino)phenyl)acetate]", "IC50": "> 1"}
{"smiles": "CCc1cc(Nc2ccc(C(CO)C(F)(F)F)cc2)nc(-c2cccc(Cl)c2)n1", "note": "(stereo not drawn) [Example 186, 2-(4-((2-(3-Chlorophenyl)-6-ethylpyrimidin-4-yl)amino)phenyl)-3,3,3-trifluoropropan-1-ol]", "IC50": "> 1"}
{"smiles": "CCc1cc(Nc2ccc(C(C)(C)C(N)=O)cc2)nc(-c2cccc(Cl)c2)n1", "note": "[Example 187, 2-(4-((2-(3-Chlorophenyl)-6-ethylpyrimidin-4-yl)amino)phenyl)-2-methylpropanamide]", "IC50": "> 1"}
{"smiles": "CCc1cc(Nc2ccc(Cn3cc(Cl)cn3)cc2)nc(-c2cccc(Cl)c2)n1", "note": "[Example 188, N-(4-((4-Chloro-1H-pyrazol-1-yl)methyl)phenyl)-2-(3-chlorophenyl)-6-ethylpyrimidin-4-amine]", "IC50": "> 1"}
{"smiles": "CCc1cc(Nc2ccc(Cn3cccn3)cc2)nc(-c2cccc(Cl)c2)n1", "note": "[Example 189, N-(4-((1H-Pyrazol-1-yl)methyl)phenyl)-2-(3-chlorophenyl)-6-ethylpyrimidin-4-amine]", "IC50": "< 1"}
{"smiles": "CCc1cc(Cc2ccc(Cn3cc(Cl)cn3)cc2)nc(-c2cccc(Cl)c2)n1", "note": "[Example 190, 4-(4-((4-Chloro-1H-pyrazol-1-yl)methyl)benzyl)-2-(3-chlorophenyl)-6-ethylpyrimidine]", "IC50": "< 1"}
{"smiles": "CCc1cc(/N=c2\\[nH]cc(CC(N)=O)o2)nc(-c2cccc(Cl)c2)n1", "note": "[Example 192, 2-(2-((2-(3-Chlorophenyl)-6-ethylpyrimidin-4-yl)imino)-2,3-dihydrooxazol-5-yl)acetamide]", "IC50": "> 1"}
{"smiles": "CCCN(C)C(=O)Cc1ccc(Cc2cc(CC)nc(-c3cccc(Cl)c3)n2)cc1", "note": "[Example 194, 2-(4-((2-(3-Chlorophenyl)-6-ethylpyrimidin-4-yl)methyl)phenyl)-N-methyl-N-propylacetamide]", "IC50": "< 1"}
{"smiles": "CCc1cc(Cc2ccc(CC(=O)NCCO)cc2)nc(-c2cccc(Cl)c2)n1", "note": "[Example 195, 2-(4-((2-(3-chlorophenyl)-6-ethylpyrimidin-4-yl)methyl)phenyl)-N-(2-hydroxyethyl)acetamide]", "IC50": "< 1"}
{"smiles": "CCc1cc(Cc2ccc(C(C)(C)C(N)=O)cc2)nc(-c2cccc(Cl)c2)n1", "note": "[Example 196, 2-(4-((2-(3-Chlorophenyl)-6-ethylpyrimidin-4-yl)methyl)phenyl)-2-methylpropanamide]", "IC50": "> 1"}
{"smiles": "CCc1cc(Cc2ccc(C(C)(C)CO)cc2)nc(-c2cccc(Cl)c2)n1", "note": "[Example 197, 2-(4-((2-(3-Chlorophenyl)-6-ethylpyrimidin-4-yl)methyl)phenyl)-2-methylpropan-1-ol]", "IC50": "> 1"}
{"smiles": "NC(=O)Cc1ccc(Nc2cc(C(F)(F)F)nc(OC3CCCC3)n2)cc1", "note": "[Example 198, 2-(4-((2-(Cyclopentyloxy)-6-(trifluoromethyl)pyrimidin-4-yl)amino)phenyl)acetamide]", "IC50": "> 1"}
{"smiles": "OCCc1ccc(Nc2cc(C(F)(F)F)nc(OC3CCCC3)n2)cc1", "note": "[Example 199, 2-(4-((2-(Cyclopentyloxy)-6-(trifluoromethyl)pyrimidin-4-yl)amino)phenyl)ethanol]", "IC50": "< 1"}
{"smiles": "O=C(O)Cc1ccc(Cc2cc(C(F)(F)F)nc(OC3CCCC3)n2)cc1", "note": "[Example 200, 2-(4-((2-(Cyclopentyloxy)-6-(trifluoromethyl)pyrimidin-4-yl)methyl)phenyl)acetic acid]", "IC50": "> 1"}
{"smiles": "NC(=O)Cc1ccc(Cc2cc(C(F)(F)F)nc(OC3CCCC3)n2)cc1", "note": "[Example 201, 2-(4-((2-(Cyclopentyloxy)-6-(trifluoromethyl)pyrimidin-4-yl)methyl)phenyl)acetamide]", "IC50": "> 1"}
{"smiles": "OCCc1ccc(Cc2cc(C(F)(F)F)nc(OC3CCCC3)n2)cc1", "note": "[Example 202, 2-(4-((2-(Cyclopentyloxy)-6-(trifluoromethyl)pyrimidin-4-yl)methyl)phenyl)ethanol]", "IC50": "> 1"}
{"smiles": "COC(=O)Cc1ccc(Cc2cc(C(F)(F)F)nc(-c3cccc(Cl)c3)n2)cc1", "note": "[Example 203, Methyl 2-(4-((2-(3-chlorophenyl)-6-(trifluoromethyl)pyrimidin-4-yl)methyl)phenyl)acetate]", "IC50": "> 1"}
{"smiles": "NC(=O)Cc1ccc(Cc2cc(C(F)(F)F)nc(-c3cccc(Cl)c3)n2)cc1", "note": "[Example 204, 2-(4-((2-(3-Chlorophenyl)-6-(trifluoromethyl)pyrimidin-4-yl)methyl)phenyl)acetamide]", "IC50": "> 1"}
{"smiles": "OCCc1ccc(Cc2cc(C(F)(F)F)nc(-c3cccc(Cl)c3)n2)cc1", "note": "[Example 205, 2-(4-((2-(3-Chlorophenyl)-6-(trifluoromethyl)pyrimidin-4-yl)methyl)phenyl)ethanol]", "IC50": "> 1"}
{"smiles": "OCCc1ccc(Nc2cc(C3CC3)nc(-c3cccc(Cl)c3)n2)cc1", "note": "[Example 206, 2-(4-((2-(3-Chlorophenyl)-6-cyclopropylpyrimidin-4-yl)amino)phenyl)ethanol]", "IC50": "< 1"}
{"smiles": "NC(=O)Cc1ccc(Nc2cc(C3CC3)nc(-c3cccc(Cl)c3)n2)cc1", "note": "[Example 207, 2-(4-((2-(3-Chlorophenyl)-6-cyclopropylpyrimidin-4-yl)amino)phenyl)acetamide]", "IC50": "< 1"}
{"smiles": "NC(=O)Cc1ccc(Cc2cc(C3CC3)nc(-c3cccc(Cl)c3)n2)cc1", "note": "[Example 209, 2-(4-((2-(3-chlorophenyl)-6-cyclopropylpyrimidin-4-yl)methyl)phenyl)acetamide]", "IC50": "> 1"}
{"smiles": "OCCc1ccc(Cc2cc(C3CC3)nc(-c3cccc(Cl)c3)n2)cc1", "note": "[Example 210, 2-(4-((2-(3-Chlorophenyl)-6-cyclopropylpyrimidin-4-yl)methyl)phenyl)ethanol]", "IC50": "> 1"}
{"smiles": "CCOC(=O)Cc1ccc(Nc2cc(C3CC3)nc(-c3cccc(Cl)c3)n2)nc1", "note": "[Example 211, Ethyl 2-(6-((2-(3-chlorophenyl)-6-cyclopropylpyrimidin-4-yl)amino)pyridin-3-yl)acetate]", "IC50": "> 1"}
{"smiles": "NC(=O)Cc1ccc(Nc2cc(C3CC3)nc(-c3cccc(Cl)c3)n2)nc1", "note": "[Example 212, 2-(6-((2-(3-Chlorophenyl)-6-cyclopropylpyrimidin-4-yl)amino)pyridin-3-yl)acetamide]", "IC50": "> 1"}
{"smiles": "O=C(O)Cc1ccc(Nc2cc(C3CC3)nc(-c3cccc(Cl)c3)n2)nc1", "note": "[Example 213, 2-(6-((2-(3-Chlorophenyl)-6-cyclopropylpyrimidin-4-yl)amino)pyridin-3-yl)acetic acid]", "IC50": "> 1"}
{"smiles": "OCCc1ccc(Nc2cc(C3CC3)nc(-c3cccc(Cl)c3)n2)nc1", "note": "[Example 214]", "IC50": "> 1"}
{"smiles": "O=C(Cc1ccc(Nc2cc(C3CC3)nc(-c3cccc(Cl)c3)n2)nc1)NCCO", "note": "[Example 215, 2-(6-((2-(3-Chlorophenyl)-6-cyclopropylpyrimidin-4-yl)amino)pyridin-3-yl)-N-(2-hydroxyethyl)acetamide]", "IC50": "< 1"}
{"smiles": "NC(=O)Cc1ccc(Nc2nc(C3CCCC3)nc3c2CCC3)cc1", "note": "[Example 216, 2-(4-((2-Cyclopentyl-6,7-dihydro-5H-cyclopenta[d]pyrimidin-4-yl)amino)phenyl)acetamide]", "IC50": "< 1"}
{"smiles": "OCCc1ccc(Nc2nc(C3CCCC3)nc3c2CCC3)cc1", "note": "[Example 217, 2-(4-((2-Cyclopentyl-6,7-dihydro-5H-cyclopenta[d]pyrimidin-4-yl)amino)phenyl)ethanol]", "IC50": "> 1"}
{"smiles": "FC(F)(F)c1cc(Cc2ccc(Cn3cc(Cl)cn3)cc2)nc(-c2cccc(Cl)c2)n1", "note": "[Example 218, 4-(4-((4-Chloro-1H-pyrazol-1-yl)methyl)benzyl)-2-(3-chlorophenyl)-6-(trifluoromethyl)pyrimidine]", "IC50": "> 1"}
{"smiles": "OCCc1ccc(Nc2cc(C(F)(F)F)nc(-c3cccc(Cl)c3)n2)cc1", "note": "[Example 219, 2-(4-((2-(3-Chlorophenyl)-6-(trifluoromethyl)pyrimidin-4-yl)amino)phenyl)ethanol]", "IC50": "> 1"}
{"smiles": "NC(=O)Cc1ccc(Nc2cc(C(F)(F)F)nc(-c3cccc(Cl)c3)n2)cc1", "note": "[Example 220, 2-(4-((2-(3-Chlorophenyl)-6-(trifluoromethyl)pyrimidin-4-yl)amino)phenyl)acetamide]", "IC50": "< 1"}
